For orientation: inhibition means the relative decrease from the control value, in per cent.

Assay [1] has as its target T1, aldose reductase from human placenta (Homo sapiens, UniProt P15121).
T1 construct: Partially purified aldose reductase from human placenta; from tissue; host or cells: human placenta
As to the kind of experiment: Aldose reductase inhibition (in vitro study). The class given is biochemical. The following applies: for inhibition at 1 µM: 10^-6 M; for inhibition at 0.1 µM: 10^-7 M. The source says:
1. Aldose reductase inhibition (in vitro study)
Partially purified aldose reductase from human placenta was used for the test of aldose reductase inhibitory effect according to the method of S. Hayman et al. described in Journal of Biological Chemistry, 240, 877 (1965) or the method of J. H. Kinoshita et al. described in Metabolism, 28, Supplement 1, 462 (1979).

Assay [2] concerns sorbitol accumulation in sciatic nerves of streptozocin diabetic rats. As to the kind of experiment: Inhibition of sorbitol accumulation in the tissue of experimentally induced diabetic rat. Format: in vivo, rat (Spraque-Dawley). The note with it: for sorbitol accumulation: sciatic nerve, untreated control group = 100; for inhibition of sorbitol accumulation in vivo compared with control compounds (in words): vs control compounds A, B, C. Here is the method: Spraque-Dawley rats (male, 5-7-week-old, 5 animals per group) were fasted for 18 hours, and received injection of 70 mg/kg of streptozocin (Cal Biochem Co.) into the caudal vein under anesthesia with ether, so that diabetic rats were obtained. From immediately after the injection of streptozocin these rats were given orally the test compound of 50 mg/kg or 30 mg/kg in the form of 5% gum arabic suspension twice a day (at 10 a.m. and 5 p.m.) for 2 days. During this period the rats were allowed to take CE-2 diet (Clea Japan, Inc.) and water ad libitum. In the morning on the 3rd day (9 a.m.) the rats were killed (decapitation and venesection), and immediately the sciatic nerves were isolated, from which sorbitol was extracted according to the method of M. J. Peterson et al. described in Metabolism, 28, 456 (1979) and the sorbitol level was determined by the enzymatic method of P.S. Clements et al. in Science, 166, 1007 (1969).

Assay [3] relates to washed rat platelets. The assay can be described thus: Inhibitory action on platelet aggregation (washed rat platelets). The class given is cell-based, rat (Spraque-Dawley). The following applies: Rattus norvegicus, Platelet, Mean ± SD (N = 3); for inhibition at 100 µM: 10^-4 M. Here is the method:
3. Inhibitory action on platelet aggregation
Effect of 3,4-dihydro-2,8-diisopropyl-3-thioxo-2H-1,4-benzoxazine-4-acetic acid on platelet aggregation was examined using washed rat platelets.
Platelet rich plasma (PRP) was prepared by centrifuging the blood at 150 xg for 15 min at room temperature. To prepare washed platelets, the PRP was centrifuged at 1500 xg for 10 min and the precipitated platelets were resuspended in Tyrode's solution. The number of platelets used was 7×10^5 cells/mm^3. Platelet aggregation was measured by the turbidmetric method using an aggregometer (Nikko Bioscience, Model PAR-4M, Tokyo). The test compound dissolved in 10 μl of water was added to 250 μl of washed platelet suspension and incubated at 37° C. for 3 min before 10 μl of aggregating agents ([…] of collagen, Nikko Bioscience or 10 μM of ADP, Shigma, St. Louis, Mo., at the final concentration) was added.

Where [4] appears, read: 30 mg/kg orally twice a day for 2 days.
[5] abbreviates: 50 mg/kg orally twice a day for 2 days.

Like-named read-outs stand apart in the source and are kept apart here.

Consider `COc1cccc2c1OC(C(C)C)C(=S)N2CC(=O)O` (centres unmarked) [Example 5, 3,4-dihydro-2-isopropyl-8-methoxy-3-thioxo-2H-1,4-benzoxazine-4-acetic acid], for which, in assay [1], the inhibition at 1 µM was found to be 48.1% and the inhibition at 0.1 µM came to 17.3%. Also, the sorbitol accumulation in assay [2] (setting [4]) is 29%. This compound also registered a sorbitol accumulation in assay [2] (setting [5]) of 11%.

For the compound `CCc1cccc2c1OC(C(C)C)C(=S)N2CC(=O)O` (centres unmarked) [Example 13, 8-ethyl-3,4-dihydro-2-isopropyl-3-thioxo-2H-1,4-benzoxazine-4-acetic acid], in assay [1], the inhibition at 1 µM turned out to be 46.8% and the inhibition at 0.1 µM worked out at 14.9%. The same compound yielded a sorbitol accumulation in assay [2] (setting [4]) of 35%.

For the compound `CC(C)C1Oc2c(Cl)cccc2N(CC(=O)O)C1=S` (centres unmarked) [Example 3, 8-chloro-3,4-dihydro-2-isopropyl-3-thioxo-2H-1,4-benzoxazine-4-acetic acid], in assay [1], the inhibition at 1 µM came out at 48.9% and the inhibition at 0.1 µM was 8.9%. In assay [2] (setting [5]), this compound gave a sorbitol accumulation of 23%.

Turning to `O=C(O)CN1C(=S)COc2ccc(F)cc21` [Control A, 6fluoro-3,4-dihydro-3-thioxo-2H--1,4benzoxazine-4-acetic acid, reference compound], in assay [1], the inhibition at 1 µM worked out at 50.8% and the inhibition at 0.1 µM was 25%. This compound gave a sorbitol accumulation in assay [2] (setting [4]) of 73%. The same compound showed a sorbitol accumulation in assay [2] (setting [5]) of 60%.

For `CCOc1cccc2c1OC(C(C)C)C(=S)N2CC(=O)O` (centres unmarked) [Example 12, 8-ethoxy-3,4-dihydro-2isopropyl3-thioxo-2H-1,4-benzoxazine-4-acetic acid], in assay [1], the inhibition at 1 µM was determined as 43% and the inhibition at 0.1 µM stood at 19.2%. In assay [2] (setting [4]), the sorbitol accumulation was 58%.

As for `CCC(C)C1Sc2ccccc2N(CC(=O)O)C1=S` (centres unmarked) [Example 11, 3,4-dihydro-2-(1-methylpropyl)-3-thioxo-2H-1,4-benzothiazine-4-acetic acid], in assay [1], the inhibition at 1 µM came out at 47.1% and the inhibition at 0.1 µM came out at 15.2%. Also, the sorbitol accumulation in assay [2] (setting [4]) was 67%. The compound also displayed a sorbitol accumulation in assay [2] (setting [5]) of 38%. Besides, the “inhibition of sorbitol accumulation in vivo compared with control compounds (in words)” value in assay [2] is “The difference is particularly evident”.

For `COc1ccc2c(c1)c(CC(=O)O)c(C)n2C(=O)c1ccc(Cl)cc1` [Indomethacin, reference compound], the inhibition at 300 µM in assay [3] (read-out: percent inhibition of aggregation, inducer ADP, 3 × 10^-4 M) is 97.2 ± 6.4%. For the same compound, the inhibition at 100 µM in assay [3] (read-out: percent inhibition of aggregation, inducer ADP) worked out at 102 ± 8.4%; in assay [3] (read-out: percent inhibition of aggregation, inducer collagen), 28.5 ± 1.9%.

As for `CC(C)C1Oc2ccccc2N(CC(=O)O)C1=S` (centres unmarked) [Example 1, 3,4-dihydro-2-isopropyl-3-thioxo-2H-1,4-benzoxazine-4-acetic acid], in assay [1], the inhibition at 1 µM stood at 46.7% and the inhibition at 0.1 µM amounted to 19.1%. This compound returned a sorbitol accumulation in assay [2] (setting [4]) of 51%. Moreover, in assay [2] (setting [5]), the sorbitol accumulation is recorded as 18%.

As for `CC(C)C1Oc2cc(F)ccc2N(CC(=O)O)C1=S` (centres unmarked) [Example 17, 7-fluoro-3,4-dihydro-2isopropyl3-thioxo-2H-1,4-benzoxazine-4-acetic acid], in assay [1], the inhibition at 1 µM worked out at 45.7% and the inhibition at 0.1 µM came out at 2.6%. This compound also had a sorbitol accumulation in assay [2] (setting [4]) of 62%.

Consider `Cc1cccc2c1OC(C(C)C)C(=S)N2CC(=O)O` (centres unmarked) [Example 6, 3,4-dihydro-2-isopropyl-8-methyl-3-thioxo2H-1,4-benzoxazine-4-acetic acid], for which, in assay [1], the inhibition at 1 µM was found to be 48.2% and the inhibition at 0.1 µM was determined as 9.4%. In assay [2] (setting [4]), the sorbitol accumulation is 33%. Also, the sorbitol accumulation in assay [2] (setting [5]) is recorded as 16%.

As to `O=C(O)CN1C(=S)CSc2ccccc21` [Control B, 3,4dihydro-3-thioxo-2H--1,4benzothiazine-4-acetic acid, reference compound], in assay [1], the inhibition at 1 µM came to 43.1% and the inhibition at 0.1 µM turned out to be 15.7%. For the same compound, the sorbitol accumulation in assay [2] (setting [5]) is on record as 78%.

In the case of `CC(C)C1Oc2c(C3CCCCC3)cccc2N(CC(=O)O)C1=S` (centres unmarked) [Example 20, 8-cyclohexyl-3,4-dihydro-2-isopropyl-3-thioxo2H-1,4-benzoxazine-4-acetic acid], in assay [1], the inhibition at 1 µM amounted to 38.4% and the inhibition at 0.1 µM was 4.6%. The same compound gave a sorbitol accumulation in assay [2] (setting [4]) of 25%.

Take `CC(C)C1Oc2ccc(F)cc2N(CC(=O)O)C1=S` (centres unmarked) [Example 2, 6-fluoro-3,4-dihydro-2-isopropyl-3-thioxo-2H-1,4-benzoxazine-4-acetic acid]: the inhibition at 1 µM in assay [1] was determined as 43.9%. In assay [1], the inhibition at 0.1 µM stood at 8.7%. Further, the sorbitol accumulation in assay [2] (setting [4]) stood at 33%; in assay [2] (setting [5]), 12%. In assay [2], the “inhibition of sorbitol accumulation in vivo compared with control compounds (in words)” value is given as “The difference is particularly evident”.

In the case of `CC1Sc2ccccc2N(CC(=O)O)C1=S` (centres unmarked) [Control C, 3,4dihydro-2-methyl-3-thioxo-2H--1,4benzothiazine-4-acetic acid, reference compound], in assay [1], the inhibition at 1 µM turned out to be 48.7% and the inhibition at 0.1 µM turned out to be 19.6%. Also, the sorbitol accumulation in assay [2] (setting [5]) came out at 71%.

As for `CC(C)C1Oc2c(cccc2C(C)(C)C)N(CC(=O)O)C1=S` (centres unmarked) [Example 19, 8-t-butyl-3,4-dihydro-2-isopropyl-3-thioxo-2H-1,4-benzoxazine-4-acetic acid], in assay [1], the inhibition at 1 µM worked out at 39.3% and the inhibition at 0.1 µM turned out to be 8%. In addition, the sorbitol accumulation in assay [2] (setting [4]) was found to be 15%.

In the case of `COc1ccc2c(c1)OC(C(C)C)C(=S)N2CC(=O)O` (centres unmarked) [Example 7, 3,4-dihydro-2-isopropyl-7-methoxy-3-thioxo-2H-1,4-benzoxazine-4-acetic acid], in assay [1], the inhibition at 1 µM worked out at 50% and the inhibition at 0.1 µM is 14.9%. The sorbitol accumulation in assay [2] (setting [4]) was 27%.

For `CC(C)C1Oc2c(F)cccc2N(CC(=O)O)C1=S` (centres unmarked) [Example 4, 8-fluoro-3,4-dihydro-2-isopropyl-3-thioxo-2H-1,4-benzoxazine-4-acetic acid], in assay [1], the inhibition at 1 µM is 45.6% and the inhibition at 0.1 µM worked out at 3.8%. For the same compound, the sorbitol accumulation in assay [2] (setting [4]) stood at 45%. The compound also showed a sorbitol accumulation in assay [2] (setting [5]) of 14%.

For the compound `CC(C)C1Sc2ccccc2N(CC(=O)O)C1=S` (centres unmarked) [Example 9, 3,4-dihydro-2-isopropyl-3-thioxo-2H-1,4-benzothiazine-4-acetic acid], in assay [1], the inhibition at 1 µM was determined as 46.4% and the inhibition at 0.1 µM was found to be 20%. This compound also yielded a sorbitol accumulation in assay [2] (setting [4]) of 60%. Besides, the sorbitol accumulation in assay [2] (setting [5]) came out at 46%. The “inhibition of sorbitol accumulation in vivo compared with control compounds (in words)” value in assay [2] is reported as “The difference is particularly evident”.

(Values after US4771050A, “Thiolactam-n-acetic acid derivatives” (Takeda Chemical Industries, Ltd., priority 1986, dated 1988).)
